Laboratory results from patent US20170360791A1, “PHARMACEUTICAL COMPOSITIONS FOR INCREASING THE BIOAVAILABILITY OF POORLY SOLUBLE DRUGS” (ASTEX PHARMACEUTICALS, INC., priority 2014, published 2017).
Structures can show the parent of a compound that is named as a salt. Where two headings read alike, the source gives them in different places.

Experiments:
[1] = assay type: physicochemical
Experimental: The suspensions were filtered through 0.2 or 0.45 microm filters prior to HPLC analysis. Some filtrates were diluted with MeOH prior to the HPLC analysis.

[2] = MP470.HCl in T/C with or without Soluplus in SIF; assay type: physicochemical; conditions: Soluplus (12.3%) added to MP470.HCl in T/C, versus control without Soluplus; SIF 37° C., 1 mg/mL MP470 (total); FIG. 4
Experimental: A sample of the formulation was mixed with SIF solution pre-warmed at 37° C. to make a 1 mg/mL MP470 (total) mix.

## S=C(NCc1ccc2c(c1)OCO2)N1CCN(c2ncnc3c2oc2ccccc23)CC1 [MP470.HCl, amuvatinib HCl]
[1]; Capryol 90, oil or lipid, thermodynamic from solid, solvent Capryol 90, room temperature, >24 hours, read-out: Solubility
  solubility: 0.1 mg/mL
[1]; Cremophor EL, organic solvent or mixture, thermodynamic from solid, solvent Cremophor EL, room temperature, >24 hours, read-out: Solubility
  solubility: 7 mg/mL
[1]; DMF, organic solvent or mixture, thermodynamic from solid, solvent DMF, room temperature, >24 hours, read-out: Solubility
  solubility: 10 mg/mL
[1]; Labrafac CC, oil or lipid, thermodynamic from solid, solvent Labrafac CC, room temperature, >24 hours, read-out: Solubility
  solubility: 0.05 mg/mL
[1]; Labrafil M1944CS, oil or lipid, thermodynamic from solid, solvent Labrafil M1944CS, room temperature, >24 hours, read-out: Solubility
  solubility: 0.3 mg/mL
[1]; Lauroglycol 90, oil or lipid, thermodynamic from solid, solvent Lauroglycol 90, room temperature, >24 hours, read-out: Solubility
  solubility: 0.06 mg/mL
[1]; Maisine 35-1, oil or lipid, thermodynamic from solid, solvent Maisine 35-1, room temperature, >24 hours, read-out: Solubility
  solubility: 1.4 mg/mL
[1]; Miglyol 812N, oil or lipid, thermodynamic from solid, solvent Miglyol 812N, room temperature, >24 hours, read-out: Solubility
  solubility: 0.03 mg/mL
[1]; Miglyol 829, oil or lipid, thermodynamic from solid, solvent Miglyol 829, room temperature, >24 hours, read-out: Solubility
  solubility: 0.1 mg/mL
[1]; Miglyol 840, oil or lipid, thermodynamic from solid, solvent Miglyol 840, room temperature, >24 hours, read-out: Solubility
  solubility: 0.04 mg/mL
[1]; Peceol, oil or lipid, thermodynamic from solid, solvent Peceol, room temperature, >24 hours, read-out: Solubility
  solubility: 0.2 mg/mL
[1]; Solutol HS 15, aqueous with cosolvent or surfactant or cyclodextrin, thermodynamic from solid, solvent Solutol HS 15, estimated by diluting the mixture in water 1/100 and then assaying the dilution, read-out: Solubility
  solubility: 6 mg/mL
[1]; TPGS, aqueous with cosolvent or surfactant or cyclodextrin, thermodynamic from solid, solvent TPGS, estimated by diluting the mixture in water 1/100 and then assaying the dilution, read-out: Solubility
  solubility: 7 mg/mL
[1]; benzyl acetate, organic solvent or mixture, thermodynamic from solid, solvent Benzyl acetate, room temperature, >24 hours, read-out: Solubility
  solubility: 0.4 mg/mL
[1]; benzyl alcohol, organic solvent or mixture, thermodynamic from solid, solvent Benzyl alcohol, room temperature, >24 hours, read-out: Solubility
  solubility: 48 mg/mL
[1]; canola oil, oil or lipid, thermodynamic from solid, solvent Canola oil, room temperature, >24 hours, read-out: Solubility
  solubility: 0.01 mg/mL
[1]; castor oil, oil or lipid, thermodynamic from solid, solvent Castor oil, room temperature, >24 hours, read-out: Solubility
  solubility: 0.2 mg/mL
[1]; clove oil, oil or lipid, thermodynamic from solid, solvent Clove oil, room temperature, >24 hours, read-out: Solubility
  solubility: 6.7 mg/mL
[1]; corn oil, oil or lipid, thermodynamic from solid, solvent Corn oil, room temperature, >24 hours, read-out: Solubility
  solubility: 0.01 mg/mL
[1]; dichloromethane, organic solvent or mixture, thermodynamic from solid, solvent Dichloromethane, room temperature, >24 hours, read-out: Solubility
  solubility: 0.4 mg/mL
[1]; ethyl acetate, organic solvent or mixture, thermodynamic from solid, solvent Ethyl acetate, room temperature, >24 hours, read-out: Solubility
  solubility: 0.05 mg/mL
[1]; peanut oil, oil or lipid, thermodynamic from solid, solvent Peanut oil, room temperature, >24 hours, read-out: Solubility
  solubility: 0.01 mg/mL
[1]; sesame oil, oil or lipid, thermodynamic from solid, solvent Sesame oil, room temperature, >24 hours, read-out: Solubility
  solubility: 0.03 mg/mL
[1]; solvent Acetic acid, room temperature, >24 hours, HCl
  solubility: 3.0 mg/mL
[1]; solvent Acetone, room temperature, >24 hours, HCl
  solubility: 0.2 mg/mL
[1]; solvent DMA, room temperature, >24 hours, HCl
  solubility: 13 mg/mL
[1]; solvent DMSO, room temperature, >24 hours, HCl
  solubility: 18 mg/mL
[1]; solvent Glycerin, room temperature, >24 hours, HCl
  solubility: 4 mg/mL
[1]; solvent Labrasol, room temperature, >24 hours, HCl
  solubility: 3 mg/mL
[1]; solvent Methanol, room temperature, >24 hours, HCl
  solubility: 3 mg/mL
[1]; solvent NMP, room temperature, >24 hours, HCl
  solubility: 40 to 80 mg/mL
[1]; solvent PEG400, room temperature, >24 hours, HCl
  solubility: 2 mg/mL
[1]; solvent Phosal 50 PG, room temperature, >24 hours, HCl
  solubility: 15 mg/mL
[1]; solvent Propylene glycol, room temperature, >24 hours, HCl
  solubility: 4 mg/mL
[1]; solvent Triacetin, room temperature, >24 hours, HCl
  solubility: 0.8 mg/mL
[1]; solvent Tween 20, room temperature, >24 hours, HCl
  solubility: 17 mg/mL
[1]; solvent Tween 80, room temperature, >24 hours, HCl
  solubility: 4.5 mg/mL
[1]; tocopherol, oil or lipid, thermodynamic from solid, solvent Tocopherol, room temperature, >24 hours, read-out: Solubility
  solubility: 0.8 mg/mL
[2]
  MP470 solubility enhancement: ~10 fold
